Source: ChEMBL document CHEMBL1156699, “C-terminal constrained phenylalanine as a pharmacophoric unit in peptide-based proteasome inhibitors” (Eur J Med Chem, 2008)
pIC50: −log10 of the molar value. Residues, ends and D or L forms follow the SMILES beside them. *: point of attachment. Cbz = O=C(OCc1ccccc1)*

Tests used:
[1] = Inhibition of trypsin like 20S proteasome activity in lymphoblastoid cells; type: cell-based
[2] = Half life in human plasma after 360 mins; type: ADME, cell-free
[3] = Inhibition of chymotrypsin like 20S proteasome activity in lymphoblastoid cells; type: cell-based
[4] = In vivo inhibition of chymotrypsin like 20S proteasome; type: organism-based
[5] = Inhibition of caspase like 20S proteasome activity in lymphoblastoid cells; type: cell-based
[6] = In vivo inhibition of trypsin like 20S proteasome; type: organism-based
[7] = In vivo inhibition of caspase like 20S proteasome; type: organism-based

| Structure (SMILES) | pIC50 [1] | half-life [2] | pIC50 [3] | pIC50 [4] | pIC50 [5] | pIC50 [6] | pIC50 [7] |
| --- | --- | --- | --- | --- | --- | --- | --- |
| CCOC(=O)/C=C/[C@H](CC(C)C)NC(=O)[C@H](CO)NC(=O)[C@@H](NC(=O)c1cccc(O)c1C)C(C)C | 7.48 | > 6 h | < 5.00 | < 5.00 | < 5.00 | 7.30 | < 5.00 |
| CCOC(=O)/C(=C/c1ccccc1)NC(=O)[C@H](CC(C)C)NC(=O)[C@H](CO)NC(=O)[C@@H](NC(=O)c1cccc(O)c1C)C(C)C | 7.10 | > 6 h | < 5.00 | < 5.00 | < 5.00 | 7.04 | < 5.00 |
| CCOC(=O)/C(=C/c1ccccc1)NC(=O)[C@H](CC(C)C)NC(=O)[C@H](CC(C)C)NC(=O)[C@H](CC(C)C)NC(=O)c1cccc(O)c1C | 5.88 | > 6 h | 6.05 | 5.98 | < 5.00 | 5.74 | < 5.00 |
| CCOC(=O)/C=C/[C@H]1Cc2ccccc2CN1C(=O)[C@H](CC(C)C)NC(=O)[C@H](CC(C)C)NC(=O)c1cccc(O)c1C | < 5.00 | > 6 h | 5.43 | – | 5.83 | – | 5.69 |
| CCOC(=O)/C=C/[C@H]1Cc2ccccc2CN1C(=O)[C@H](CC(C)C)NC(=O)[C@H](CO)NC(=O)[C@@H](NC(=O)c1cccc(O)c1C)C(C)C | 5.10 | – | < 5.00 | – | 5.63 | – | – |
| CCOC(=O)/C=C/[C@H]1Cc2ccccc2CN1C(=O)[C@H](CC(C)C)NC(=O)[C@H](CC(C)C)NC(=O)[C@H](CC(C)C)NC(=O)c1cccc(O)c1C | < 5.00 | > 6 h | 5.07 | – | 6.02 | – | 5.85 |
| CCOC(=O)/C=C/[C@@H]1Cc2ccccc2CN1C(=O)[C@H](CC(C)C)NC(=O)[C@H](CC(C)C)NC(=O)c1cccc(O)c1C | 5.23 | – | 5.69 | – | 5.67 | – | – |
| CCOC(=O)/C=C/[C@@H]1Cc2ccccc2CN1C(=O)[C@H](CO)NC(=O)[C@@H](NC(=O)c1cccc(O)c1C)C(C)C | 5.55 | – | < 5.00 | – | 5.41 | – | – |
| CCOC(=O)/C=C/[C@H]1Cc2ccccc2CN1C(=O)[C@H](CO)NC(=O)[C@@H](NC(=O)c1cccc(O)c1C)C(C)C | 5.43 | – | < 5.00 | – | 5.53 | – | – |
| CCOC(=O)/C(=C/c1ccccc1)NC(=O)[C@H](CC(C)C)NC(=O)[C@H](CC(C)C)NC(=O)c1cccc(O)c1C | 5.75 | > 6 h | 5.93 | 5.81 | < 5.00 | 5.66 | < 5.00 |
| CCOC(=O)/C(=C/c1ccccc1)NC(=O)[C@H](CO)NC(=O)[C@@H](NC(=O)c1cccc(O)c1C)C(C)C | 6.74 | > 6 h | < 5.00 | < 5.00 | < 5.00 | 6.64 | < 5.00 |
| CCOC(=O)/C=C/[C@@H]1Cc2ccccc2CN1C(=O)[C@H](CC(C)C)NC(=O)[C@H](CC(C)C)NC(=O)[C@H](CC(C)C)NC(=O)c1cccc(O)c1C | < 5.00 | – | 5.28 | – | 5.76 | – | – |
| CCOC(=O)/C=C/[C@@H]1Cc2ccccc2CN1C(=O)[C@H](CC(C)C)NC(=O)[C@H](CO)NC(=O)[C@@H](NC(=O)c1cccc(O)c1C)C(C)C | < 5.00 | – | < 5.00 | – | 5.60 | – | – |
| CC[C@H](C)[C@H](NC(=O)[C@H]([C@@H](C)CC)N(C)C(C)=O)C(=O)N[C@H](C(=O)N[C@@H](CC(C)C)C(=O)[C@@]1(C)CO1)[C@@H](C)O [EPOXOMYCIN] | – | – | 8.30 | – | – | – | – |
| CC(C)C[C@@H](C=O)NC(=O)[C@H](CC(C)C)NC(=O)[C@H](CC(C)C)NC(=O)OCc1ccccc1 [MG-132] (Cbz-Leu-Leu-Leu-aldehyde) | 5.97 | – | 8.70 | – | < 5.00 | – | – |
